Several values for one entry are separate records, joined by “and”; a condition that tells them apart may be missing. Equal entries are not always repeated. Values belong to the compound of their own block, whether it stands above or below them.
Key:
[1] = test system: KB-VCR cells; assay: Cell cytotoxicity assay (CCK-8), KB-VCR; format: cell-based, human; conditions: for IC50: Homo sapiens, 72 h; for IC50 / FR (fold-resistance): chemotherapeutic alone
Method: (§1) Briefly, cells (2,000/well) were seeded in 96-well plate and cultured at 37°C in 5% CO2 for 24h. […] After 72 h of treatment, 15μL Cell Counting Kit-8 solution was added to each well followed by another 2 h of incubation. The absorbance at 450nm and 600nm were then measured using a SpectraMax M5 microplate reader. The curves of growth inhibition rate were fitted with GraphPad Prism 5 and the IC50 values were calculated. Each assay was conducted three times in quadruplicate

[2] = test system: KB-WT cells; assay: Cell cytotoxicity assay (CCK-8), KB-WT; format: cell-based, human; conditions: for IC50: Homo sapiens
Method: as §1

[3] = target: T1, recombinant human ABCB1 membranes (Homo sapiens, UniProt P08183); assay: P-gp ATPase activity assay (Pgp-Glo, VER-stimulated); format: biochemical
T1 construct: purchased
T1 sequence (P08183 whole entry): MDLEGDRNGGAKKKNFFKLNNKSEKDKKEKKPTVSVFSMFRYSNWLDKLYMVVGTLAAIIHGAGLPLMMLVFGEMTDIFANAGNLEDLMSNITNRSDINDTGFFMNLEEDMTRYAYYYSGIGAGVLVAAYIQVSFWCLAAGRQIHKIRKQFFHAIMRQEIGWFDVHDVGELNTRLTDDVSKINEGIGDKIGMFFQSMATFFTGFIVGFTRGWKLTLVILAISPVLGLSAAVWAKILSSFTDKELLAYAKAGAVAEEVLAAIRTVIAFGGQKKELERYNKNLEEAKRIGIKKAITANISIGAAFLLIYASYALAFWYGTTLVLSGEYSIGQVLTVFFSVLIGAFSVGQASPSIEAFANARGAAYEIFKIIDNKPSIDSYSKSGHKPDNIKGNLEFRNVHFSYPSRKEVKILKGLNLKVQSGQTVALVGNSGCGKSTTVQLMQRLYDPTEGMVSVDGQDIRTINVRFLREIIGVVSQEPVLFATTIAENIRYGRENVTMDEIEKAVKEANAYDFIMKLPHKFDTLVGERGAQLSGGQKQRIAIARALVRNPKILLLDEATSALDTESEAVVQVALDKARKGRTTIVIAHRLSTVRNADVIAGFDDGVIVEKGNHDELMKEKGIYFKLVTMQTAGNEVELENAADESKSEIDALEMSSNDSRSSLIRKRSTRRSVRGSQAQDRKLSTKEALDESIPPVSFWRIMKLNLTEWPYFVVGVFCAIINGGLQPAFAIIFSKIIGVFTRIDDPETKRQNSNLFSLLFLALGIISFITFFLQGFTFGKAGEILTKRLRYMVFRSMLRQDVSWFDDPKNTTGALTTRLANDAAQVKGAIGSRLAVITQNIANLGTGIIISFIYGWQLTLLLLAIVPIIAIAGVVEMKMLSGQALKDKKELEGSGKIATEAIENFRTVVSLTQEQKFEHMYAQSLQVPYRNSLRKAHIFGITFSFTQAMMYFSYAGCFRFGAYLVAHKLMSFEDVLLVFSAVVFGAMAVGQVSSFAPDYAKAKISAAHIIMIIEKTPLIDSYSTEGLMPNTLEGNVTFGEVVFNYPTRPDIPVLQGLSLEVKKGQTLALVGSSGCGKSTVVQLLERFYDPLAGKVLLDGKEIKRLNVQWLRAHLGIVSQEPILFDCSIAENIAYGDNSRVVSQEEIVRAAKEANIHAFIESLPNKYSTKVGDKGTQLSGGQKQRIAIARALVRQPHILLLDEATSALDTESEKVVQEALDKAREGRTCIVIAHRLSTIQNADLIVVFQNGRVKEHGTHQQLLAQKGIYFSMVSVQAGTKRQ
Source text: Sodium orthovanadate (Na3VO4) was used as an ABCB1 ATPase inhibitor. […] Luminescence was initiated by ATP detection buffer.

[4] = test system: KB-VCR xenografts; assay: KB-VCR tumor xenograft model; format: in vivo, Balb/c nude mice; conditions: for mean tumor volume / tumor weight: day 21
Source text: (§2) All the animal experiments were approved by the Institutional Animal Care and Use Committee at China Pharmaceutical University (Permit Number: CPU1201P) and carried out in strict accordance with the recommendations in the Guide for the Care and Use of Laboratory Animals of AAALAC international. Animals were acclimated for 5 days prior to study initiation. […] If any animal was moribund due to treatment associated toxicity or tumor over-growth (≥ 2000 mm^3) before scheduled sacrifice, it would be euthanized. At the endpoint, the animals were euthanized by using CO2 and all efforts were made to minimize suffering.
(§3) Body weight and the tumor growth were monitored twice a week. Tumor size was measured to the nearest 0.1 mm using vernier caliper and applying the formula: Tumor volume = length × width^2 × 0.5. Efficacy data was graphically represented as the mean tumor volume ± standard error of the mean (SEM). Tumors were collected for further analysis after last measurement.

[5] = test system: KB-WT xenografts; assay: KB-WT tumor xenograft model; format: in vivo, Balb/c nude mice; conditions: day 21, mean±SEM
Source text: as §2, §3

[6] = target: T2, P-gp (Homo sapiens, UniProt P08183); assay: Calcein-AM P-gp inhibition assay in MDCK-MDR1 cells; format: cell-based; conditions: 2μM GF120918 = 100%
T2 construct: expressed in transfected cells; host or cells: MDCK-MDR1 cells (canine kidney cells)
T2 sequence (P08183 whole entry): as above
Method: The calcein-AM assay was optimized from previous studies.[28, 29] MDCK-MDR1 cells were cultured as described above. Cells were seeded at 8,000 cells/well (100μl of culture medium) in 96-well flat clear bottom black polystyrene plates. The medium was changed 24h after seeding and the assay was performed 48 h later. On the day of study, the medium was removed and plates were washed three times with phosphate-buffered saline (PBS). Test compounds at various concentrations were added to plates in 50μl of transport buffer containing 0.5% DMSO as solvent. Plates were incubated at 37°C for 30 min. Calcein-AM was added in 50μl of PBS to yield a final concentration of 10μM.
P-gp inhibition was calculated as described previously.[29] The curves of inhibition rates were fitted with GraphPad Prism 5 and the IC50 values were calculated. Each assay was conducted three times in quadruplicate.

[7] = target: T2, P-gp; assay: MDCK-MDR1 monolayer transport assay; format: cell-based; conditions: dog
Method: MDCK-MDR1 cells could differentiate into columnar epithelium with tight junctions in three days later to form cell monolayer. […] If a drug was a P-gp substrate, its permeation from apical side (A) to basal side (B) would be inhibited and reduced, while the permeation from B to A would not be affected. When a P-gp inhibitor was added, the permeation of P-gp substrate from A to B could be increased.
MDCK-MDR1 cells were cultured in Dulbecco's MEM (DMEM) Medium supplemented with 10% fetal bovine serum (FBS) and 2 mM L-glutamine. […] The plates were incubated at 37°C with 5% CO2/95% air for 4 days and subsequently used for assays. […] Plates were incubated for 90 min in 5% CO2/95% air, 37°C CO2 incubator with slowly shaking (60 rpm). Apical and basolateral compartments were sampled at the end of the transport experiment and the tested substance concentrations in both compartments were determined by LC-MS/MS.
The apparent permeability (Papp) and efflux ratio were calculated based on the equations reported previously.[33]

[8] = 2 mg/kg modulator + VCR 2 mg/kg
[9] = 5 mg/kg modulator + VCR 2 mg/kg
[10] = KB-WT, chemotherapeutic alone, 72 h

SMILES: COc1ccc(CCN(C)CCCC(C#N)(c2ccc(OC)c(OC)c2)C(C)C)cc1OC (stereo not shown) [VER, verapamil]
- FR of DOX ([1]; DOX + 10 μM modulator): 3.21
- FR of PTX ([1]; PTX + 10 μM modulator): 20.6
- FR of VCR ([1]; VCR + 10 μM modulator): 82.74
- FR of DOX ([2]; KB-WT, DOX + 10 μM modulator): 1.27
- FR of PTX ([2]; KB-WT, PTX + 10 μM modulator): 2.03
- FR of VCR ([2]; KB-WT, VCR + 10 μM modulator): 1.83

- Fold stimulation ([3]; VER 100μM + HZ08 0.625μM): 4.31
- Fold stimulation ([3]; VER 100μM + HZ08 1.25μM): 4.26
- Fold stimulation ([3]; VER 100μM + HZ08 5μM): 3.89
- Fold stimulation ([3]; VER 100μM + HZ08 10μM): 3.67
- Fold stimulation ([3]; VER 100μM + HZ08 20μM): 3.21
- Fold stimulation ([3]; VER 100μM + HZ08 40μM): 2.40
- Fold stimulation ([3]; VER 100μM + HZ08 80μM): 2.01
- Fold stimulation ([3]; VER 100μM + HZ08 […]): 4.04
- IC50 [6]: ~2.44 µM and 2.44 µM
SMILES: CCCCCCCCNC(=NC#N)N1CCc2cc(OC)c(OC)cc2C1Cc1ccc(OC)c(OC)c1 (stereo not shown) [HZ08]
- ATP consumed ([3]; VER 100μM + HZ08 0.625μM): 74.09±4.02 pmol ATP consumed/ μg P-gp / min
- ATP consumed ([3]; VER 100μM + HZ08 1.25μM): 73.10±1.34 pmol ATP consumed/ μg P-gp / min
- ATP consumed ([3]; VER 100μM + HZ08 5μM): 66.82±0.87 pmol ATP consumed/ μg P-gp / min
- ATP consumed ([3]; VER 100μM + HZ08 10μM): 63.11±1.71 pmol ATP consumed/ μg P-gp / min
- ATP consumed ([3]; VER 100μM + HZ08 20μM): 55.21±0.43 pmol ATP consumed/ μg P-gp / min
- ATP consumed ([3]; VER 100μM + HZ08 40μM): 41.25±3.00 pmol ATP consumed/ μg P-gp / min
- ATP consumed ([3]; VER 100μM + HZ08 80μM): 34.48±1.56 pmol ATP consumed/ μg P-gp / min
- ATP consumed ([3]; VER 100μM + HZ08 […]): 69.42±1.31 pmol ATP consumed/ μg P-gp / min
- mean tumor volume [4, 8]: 1536.36±190.04 mm^3
- tumor weight [4, 8]: 1.222 ± 0.200 g
- tumor inhibition (tumor volume) ([4]; 5 mg/kg modulator + VCR 2 mg/kg, compared with 2 mg/kg): a higher tumor inhibition was observed
- tumor weight [4, 9]: 0.954 ± 0.175 g
- cytotoxicity as single agent ([1]; CCK-8, concentrations up to 20μM): no cytotoxicity
- FR of DOX ([1]; DOX + 5 μM modulator): 3.84
- FR of DOX ([1]; DOX + 10 μM modulator): 4.78
- FR of PTX ([1]; PTX + 5 μM modulator): 120.06
- FR of PTX ([1]; PTX + 10 μM modulator): 131.04
- FR of VCR ([1]; VCR + 5 μM modulator): 173.46
- FR of VCR ([1]; VCR + 10 μM modulator): 246.35
- cytotoxicity as single agent ([2]; KB-WT, CCK-8, concentrations up to 20μM): no cytotoxicity
- FR of DOX ([2]; KB-WT, DOX + 5 μM modulator): 0.83
- FR of DOX ([2]; KB-WT, DOX + 10 μM modulator): 1.19
- FR of PTX ([2]; KB-WT, PTX + 5 μM modulator): 1.97
- FR of PTX ([2]; KB-WT, PTX + 10 μM modulator): 2.68
- FR of VCR ([2]; KB-WT, VCR + 5 μM modulator): 1.65
- FR of VCR ([2]; KB-WT, VCR + 10 μM modulator): 3.67
- mean tumor volume [5, 8]: 1193.11±84.95 mm^3
- tumor weight [5, 8]: 1.050 ± 0.080 g
- mean tumor volume [5, 9]: 872.92±301.72 mm^3
- tumor weight [5, 9]: 0.845 ± 0.183 g

SMILES: CC(=O)O[C@H]1C(=O)[C@@]2(C)[C@H]([C@H](OC(=O)c3ccccc3)[C@]3(O)C[C@H](OC(=O)[C@H](O)[C@@H](NC(=O)c4ccccc4)c4ccccc4)C(C)=C1C3(C)C)[C@]1(OC(C)=O)CO[C@@H]1C[C@@H]2O [PTX, paclitaxel]
- IC50 [1]: 0.194 ± 0.0177 µM
- FR (fold-resistance) [1]: 1.00
- IC50 [2, 10]: 0.0037 ± 0.0009 µM
- FR (fold-resistance) ([2]; KB-WT, chemotherapeutic alone): 1.00

- Papp A→B at 90 min, 1 μM [7]: 3.2 ± 1 nm/s
- Papp B→A at 90 min, 1 μM [7]: 19.9 ± 2.8 nm/s
SMILES: CC[C@]1(O)C[C@H]2CN(CCc3c([nH]c4ccccc34)[C@@](C(=O)OC)(c3cc4c(cc3OC)N(C=O)[C@H]3[C@@](O)(C(=O)OC)[C@H](OC(C)=O)[C@]5(CC)C=CCN6CC[C@]43[C@@H]65)C2)C1 [VCR, Vincristine]
- tumor weight ([4]; VCR 2 mg/kg alone): 1.623 ± 0.233 g
- mean tumor volume ([4]; VCR 2 mg/kg weekly i.v. alone): 2009.99±24.57 mm^3
- IC50 [1]: 0.619 ± 0.158 µM
- IC50 [2]: ~0.0015 µM
- IC50 [2, 10]: 0.0015 ± 0.0002 µM
- mean tumor volume ([5]; VCR 2 mg/kg weekly i.v. alone): 1206.41±132.53 mm^3

SMILES: COc1cccc2c1C(=O)c1c(O)c3c(c(O)c1C2=O)C[C@@](O)(C(=O)CO)C[C@@H]3O[C@H]1C[C@H](N)[C@H](O)[C@H](C)O1 [DOX, Doxorubicin]
- IC50 [1]: 0.245 ± 0.0398 µM
- FR (fold-resistance) [1]: 1.00
- IC50 [2, 10]: 0.0473 ± 0.0197 µM
- FR (fold-resistance) ([2]; KB-WT, chemotherapeutic alone): 1.00

Reference: article PMC4331368, “HZ08 Reverse P-Glycoprotein Mediated Multidrug Resistance In Vitro and In Vivo” (PLoS ONE, 2015)
